Results taken from publication PMC12273560, “A versatile fluorescence polarization-based deubiquitination assay using an isopeptide bond substrate mimetic (IsoMim)” (The Journal of Biological Chemistry, 2025).

Tests used:
[1] = target: T1, USP2 (Homo sapiens, UniProt O75604); assay: fluorescence polarization deubiquitination assay (IsoMim); assay type: biochemical
T1 construct: expressed in E. coli BL21(DE3)-RIL, nickel column purification
T1 sequence (O75604 250-605): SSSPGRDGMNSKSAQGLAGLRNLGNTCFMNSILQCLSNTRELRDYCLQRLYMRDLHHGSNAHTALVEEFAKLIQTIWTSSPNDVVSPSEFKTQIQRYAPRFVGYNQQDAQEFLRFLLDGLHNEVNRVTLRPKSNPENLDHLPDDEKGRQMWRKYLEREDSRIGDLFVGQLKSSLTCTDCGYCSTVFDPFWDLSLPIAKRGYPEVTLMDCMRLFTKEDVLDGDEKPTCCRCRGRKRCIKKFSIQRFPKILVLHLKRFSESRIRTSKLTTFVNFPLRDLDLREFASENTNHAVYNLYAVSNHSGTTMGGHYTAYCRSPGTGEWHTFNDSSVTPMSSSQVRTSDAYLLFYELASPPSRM

[2] = target: T2, UCHL3 (Homo sapiens, UniProt P15374); assay: as above; assay type: biochemical
T2 construct: expressed in E. coli BL21(DE3)-RIL, nickel column purification
T2 sequence (P15374 1-230): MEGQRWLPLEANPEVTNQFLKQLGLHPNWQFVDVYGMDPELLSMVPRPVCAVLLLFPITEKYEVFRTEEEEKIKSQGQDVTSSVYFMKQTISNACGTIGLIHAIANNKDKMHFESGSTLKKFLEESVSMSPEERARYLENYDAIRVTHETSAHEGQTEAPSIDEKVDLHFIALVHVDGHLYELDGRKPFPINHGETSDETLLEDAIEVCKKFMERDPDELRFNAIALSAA

## N#CSc1cc(SC#N)c(N)nc1N [PR-619]
[1]
  IC50: 1.07 µM
[2]
  IC50: 4.68 µM
